Where a name gives a salt, the structure may show the parent alone. Read-outs that look alike come from different tables or passages of the source.
Experiments:
Assay type in all cases: cell-based
[1] = molecular target: human 5-HT2A (Homo sapiens, UniProt P28223); experiment: FLIPR calcium flux assay, 5-HT2A
[2] = molecular target: T1, human 5-HT2C-INI (Homo sapiens, UniProt P28335); experiment: FLIPR calcium flux assay, 5-HT2C; details: for EC50: read-out: EC50, nM 5-HT2C, FLIPR, HEK-293 cells stably expressing human receptor
T1 sequence (P28335 33-458): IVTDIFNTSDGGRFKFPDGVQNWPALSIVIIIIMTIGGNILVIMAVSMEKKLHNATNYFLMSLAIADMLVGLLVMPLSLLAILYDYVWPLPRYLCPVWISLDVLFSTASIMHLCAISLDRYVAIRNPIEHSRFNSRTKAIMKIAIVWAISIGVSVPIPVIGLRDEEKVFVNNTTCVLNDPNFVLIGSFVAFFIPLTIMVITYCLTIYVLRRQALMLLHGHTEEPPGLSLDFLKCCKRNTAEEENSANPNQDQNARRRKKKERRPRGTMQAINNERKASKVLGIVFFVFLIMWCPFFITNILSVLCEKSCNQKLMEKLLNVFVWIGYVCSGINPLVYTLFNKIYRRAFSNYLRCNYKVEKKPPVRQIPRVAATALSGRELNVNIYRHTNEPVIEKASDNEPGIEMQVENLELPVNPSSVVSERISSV

[3] = molecular target: human 5-HT2B (Homo sapiens, UniProt P41595); experiment: FLIPR calcium flux assay, 5-HT2B; details: for Emax 5-HT2B: HEK-293 cells stably expressing human receptor
[4] = EC50, nM 5-HT2B, FLIPR, HEK-293 cells, NA = no activity (Emax < 15%) at 10 μM

Chain of human 5-HT2B (P41595 whole entry): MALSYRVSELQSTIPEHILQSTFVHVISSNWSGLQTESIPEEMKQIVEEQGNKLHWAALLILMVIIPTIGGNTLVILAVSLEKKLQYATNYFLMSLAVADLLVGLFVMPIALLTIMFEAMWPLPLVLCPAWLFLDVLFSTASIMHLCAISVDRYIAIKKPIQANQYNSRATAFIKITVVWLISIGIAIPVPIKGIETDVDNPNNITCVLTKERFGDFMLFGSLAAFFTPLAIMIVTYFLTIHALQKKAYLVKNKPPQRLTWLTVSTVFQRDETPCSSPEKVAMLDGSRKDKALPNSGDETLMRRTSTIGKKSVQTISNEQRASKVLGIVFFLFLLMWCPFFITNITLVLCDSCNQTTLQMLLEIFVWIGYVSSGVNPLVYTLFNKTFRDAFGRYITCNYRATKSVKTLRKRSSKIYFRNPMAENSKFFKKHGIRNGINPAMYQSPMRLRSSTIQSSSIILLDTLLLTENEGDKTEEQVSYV
Chain of human 5-HT2A (P28223 whole entry): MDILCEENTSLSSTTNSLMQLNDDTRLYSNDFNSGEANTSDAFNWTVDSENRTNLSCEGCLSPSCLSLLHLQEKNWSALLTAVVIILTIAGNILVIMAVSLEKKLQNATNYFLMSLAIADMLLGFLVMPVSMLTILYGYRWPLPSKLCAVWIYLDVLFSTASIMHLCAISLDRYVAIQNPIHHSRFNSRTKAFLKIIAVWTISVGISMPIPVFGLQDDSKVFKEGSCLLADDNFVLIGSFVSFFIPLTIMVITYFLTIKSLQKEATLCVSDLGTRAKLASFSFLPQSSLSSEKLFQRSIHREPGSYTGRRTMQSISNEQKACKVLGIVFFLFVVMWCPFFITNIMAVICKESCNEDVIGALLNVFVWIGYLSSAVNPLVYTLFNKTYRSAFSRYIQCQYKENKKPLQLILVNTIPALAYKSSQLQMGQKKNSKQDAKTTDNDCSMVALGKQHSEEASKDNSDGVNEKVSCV

| SMILES | EC50, nM 5-HT2A [1] | EC50 [2] [nM] | also measured |
| --- | --- | --- | --- |
| C=CCOc1ccc(F)c(F)c1C1CC1CN.Cl (single isomer, unassigned; (-)) [(–)-22b, (–)-[2-[6-(Allyloxy)-2,3-difluorophenyl]cyclopropyl]methanamine hydrochloride] | NA (no activity (Emax < 15%) at 10 μM) |  |  |
| NCC1CC1c1c(OCCF)ccc(F)c1F (single isomer, unassigned; (+)) [(+)-21b, (+)-[2-[2,3-Difluoro-6-(2-fluoroethoxy)phenyl]cyclopropyl]methanamine Hydrochloride] |  | 25 |  |
| Cl.NCC1CC1c1c(OCCF)ccc(F)c1F (single isomer, unassigned; (-)) [(–)-21b, (–)-[2-[2,3-Difluoro-6-(2-fluoroethoxy)phenyl]cyclopropyl]methanamine Hydrochloride] | NA (no activity (Emax < 15%) at 10 μM) |  |  |
| C=CCOc1ccc(F)c(Cl)c1C1CC1CN.Cl (single isomer, unassigned; (-)) [(–)-22g, (–)-[2-[6-(Allyloxy)-2-chloro-3-fluorophenyl]cyclopropyl]methanamine Hydrochloride] | NA (no activity (Emax < 15%) at 10 μM) |  |  |
| C=CCOc1ccc(Cl)c(F)c1C1CC1CN.Cl (single isomer, unassigned; (-)) [(–)-22d, (–)-[2-[6-(Allyloxy)-3-chloro-2-fluorophenyl]cyclopropyl]methanamine Hydrochloride] |  |  | EC50, nM 5-HT2B [3]: NA (no activity (Emax < 15%) at 10 μM) |
| Cl.NCC1CC1c1c(OCCF)ccc(Cl)c1F (single isomer, unassigned; (-)) [(–)-21d, (–)-[2-[3-Chloro-2-fluoro-6-(2-fluoroethoxy)phenyl]cyclopropyl]methanamine Hydrochloride] | NA (no activity (Emax < 15%) at 10 μM) |  | EC50, nM 5-HT2B [3]: NA (no activity (Emax < 15%) at 10 μM) |
| NCC1CC1c1cc(F)c(F)cc1OCCF (single isomer, unassigned; (+)) [(+)-21a, (+)-[2-[4,5-Difluoro-2-(2-fluoroethoxy)phenyl]cyclopropyl]methanamine Hydrochloride] |  | 7.3 |  |
| Cl.NCC1CC1c1cc(Cl)c(Cl)cc1OCCF (single isomer, unassigned; (-)) [(–)-21e, (–)-[2-[4,5-Dichloro-2-(2-fluoroethoxy)phenyl]cyclopropyl]methanamine Hydrochloride] | NA (no activity (Emax < 15%) at 10 μM) |  | EC50, nM 5-HT2B [3]: NA (no activity (Emax < 15%) at 10 μM) |
| C=CCOc1cc(F)c(Cl)cc1C1CC1CN.Cl (single isomer, unassigned; (-)) [(–)-22c, (–)-[2-[2-(Allyloxy)-5-chloro-4-fluorophenyl]cyclopropyl]methanamine Hydrochloride] | NA (no activity (Emax < 15%) at 10 μM) |  |  |
| C=CCOc1ccc(Cl)c(F)c1C1CC1CN.Cl (single isomer, unassigned; (+)) [(+)-22d, (+)-[2-[6-(Allyloxy)-3-chloro-2-fluorophenyl]cyclopropyl]methanamine Hydrochloride] | NA (no activity (Emax < 15%) at 10 μM) | 116 |  |
| NCC1CC1c1cc(Cl)c(F)cc1OCCF (single isomer, unassigned; (+)) [(+)-21c, (+)-[2-[5-Chloro-4-fluoro-2-(2-fluoroethoxy)phenyl]cyclopropyl]methanamine Hydrochloride] |  | 24 | EC50 ([3]; read-out: EC50, nM 5-HT2B): 506 nM |
| COc1ccc(Cl)c(Cl)c1C1CC1CN.Cl (single isomer, unassigned; (-)) [(–)-20f, (–)-[2-(2,3-Dichloro-6-methoxyphenyl)cyclopropyl]methanamine Hydrochloride] |  |  | selectivity over 5-HT2B ([3]; 5-HT2C vs 5-HT2B): 50 fold |
| C=CCOc1cc(Cl)c(Cl)cc1C1CC1CN.Cl (single isomer, unassigned; (-)) [(–)-22e, (–)-[2-[2-(Allyloxy)-4,5-dichlorophenyl]cyclopropyl]methanamine Hydrochloride] | NA (no activity (Emax < 15%) at 10 μM) |  | EC50, nM 5-HT2B [3]: NA (no activity (Emax < 15%) at 10 μM) |
| C=CCOc1cc(Cl)c(Cl)cc1C1CC1CN (single isomer, unassigned; (+)) [(+)-22e, (+)-[2-[2-(Allyloxy)-4,5-dichlorophenyl]cyclopropyl]methanamine Hydrochloride] |  | 61 |  |
| Cl.NCC1CC1c1c(OCCF)ccc(Cl)c1Cl (single isomer, unassigned; (+)) [(+)-21f, (+)-[2-[2,3-Dichloro-6-(2-fluoroethoxy)phenyl]cyclopropyl]methanamine Hydrochloride] |  |  | Emax 5-HT2B ([3]; FLIPR): 99% |
| Cl.NCC1CC1c1c(OCCF)ccc(Cl)c1Cl (single isomer, unassigned; (-)) [(–)-21f, (–)-[2-[2,3-Dichloro-6-(2-fluoroethoxy)phenyl]cyclopropyl]methanamine Hydrochloride] | NA (no activity (Emax < 15%) at 10 μM) |  | EC50 [3, 4]: > 10000 nM; Emax 5-HT2B ([3]; FLIPR): 62% |
| NCC1CC1c1c(OCCF)ccc(F)c1Cl (single isomer, unassigned; (+)) [(+)-21g, (+)-[2-[2-Chloro-3-fluoro-6-(2-fluoroethoxy)phenyl]cyclopropyl]methanamine Hydrochloride] |  | 49 |  |
| C=CCOc1ccc(F)c(F)c1C1CC1CN.Cl (single isomer, unassigned; (+)) [(+)-22b, (+)-[2-[6-(Allyloxy)-2,3-difluorophenyl]cyclopropyl]methanamine hydrochloride] | NA (no activity (Emax < 15%) at 10 μM) | 36 | EC50 ([3]; read-out: EC50, nM 5-HT2B): 3340 nM |
| Cl.NCC1CC1c1c(OCCF)ccc(F)c1Cl (single isomer, unassigned; (-)) [(–)-21g, (–)-[2-[2-Chloro-3-fluoro-6-(2-fluoroethoxy)phenyl]cyclopropyl]methanamine Hydrochloride] | NA (no activity (Emax < 15%) at 10 μM) |  | Emax 5-HT2B ([3]; FLIPR): 29% |
| C=CCOc1cc(F)c(Cl)cc1C1CC1CN.Cl (single isomer, unassigned; (+)) [(+)-22c, (+)-[2-[2-(Allyloxy)-5-chloro-4-fluorophenyl]cyclopropyl]methanamine Hydrochloride] |  | 42 | Emax 5-HT2B ([3]; FLIPR): 44% |
| COc1ccc(Cl)c(Cl)c1C1CC1CN.Cl (single isomer, unassigned; (+)) [(+)-20f, (+)-[2-(2,3-Dichloro-6-methoxyphenyl)cyclopropyl]methanamine Hydrochloride] |  |  | fold weaker at 5-HT2C than its enantiomer ([2]; compared to the (–)-enantiomer): 20 fold; Emax 5-HT2A ([1]; FLIPR, HEK-293 cells stably expressing human receptor): 76%; Emax 5-HT2B ([3]; FLIPR): 46% |
| C=CCOc1ccc(Cl)c(Cl)c1C1CC1CN.Cl (single isomer, unassigned; (+)) [(+)-22f, (+)-[2-[6-(Allyloxy)-2,3-dichlorophenyl]cyclopropyl]methanamine Hydrochloride] | NA (no activity (Emax < 15%) at 10 μM) |  | EC50, nM 5-HT2B [3]: NA (no activity (Emax < 15%) at 10 μM) |
| Cl.NCC1CC1c1c(OCCF)ccc(Cl)c1F (single isomer, unassigned; (+)) [(+)-21d, (+)-[2-[3-Chloro-2-fluoro-6-(2-fluoroethoxy)phenyl]cyclopropyl]methanamine Hydrochloride] |  | 71 | EC50, nM 5-HT2B [3]: NA (no activity (Emax < 15%) at 10 μM) |
| C=CCOc1ccc(F)c(Cl)c1C1CC1CN.Cl (single isomer, unassigned; (+)) [(+)-22g, (+)-[2-[6-(Allyloxy)-2-chloro-3-fluorophenyl]cyclopropyl]methanamine Hydrochloride] | NA (no activity (Emax < 15%) at 10 μM) |  |  |
| COc1ccc(F)c(Cl)c1C1CC1CN.Cl (single isomer, unassigned; (+)) [(+)-20g, (+)-[2-(2-Chloro-3-fluoro-6-methoxyphenyl)cyclopropyl]methanamine Hydrochloride] |  |  | Emax 5-HT2B ([3]; FLIPR): 60% |
| NCC1CC1c1cc(Cl)c(Cl)cc1OCCF (single isomer, unassigned; (+)) [(+)-21e, (+)-[2-[4,5-Dichloro-2-(2-fluoroethoxy)phenyl]cyclopropyl]methanamine Hydrochloride] |  | 18 | EC50 [3, 4]: > 10000 nM |
| Cl.NCC1CC1c1cc(Cl)c(F)cc1OCCF (single isomer, unassigned; (-)) [(–)-21c, (–)-[2-[5-Chloro-4-fluoro-2-(2-fluoroethoxy)phenyl]cyclopropyl]methanamine Hydrochloride] | NA (no activity (Emax < 15%) at 10 μM) |  |  |
| Cl.NCC1CC1c1cc(F)c(F)cc1OCCF (single isomer, unassigned; (-)) [(–)-21a, (–)-[2-[4,5-Difluoro-2-(2-fluoroethoxy)phenyl]cyclopropyl]methanamine Hydrochloride] | NA (no activity (Emax < 15%) at 10 μM) |  | EC50, nM 5-HT2B [3]: NA (no activity (Emax < 15%) at 10 μM) |
